Consider three compounds from the NIST ThermoML archive (doi:10.1021/je200609g).

Structures are written as SMILES. Numbers after ± are expanded uncertainties.

For this data set the following is noted: 101.33 kPa, Liquid; for speed of sound: Sing-around technique in a fixed-path interferometer; for mass density: Vibrating tube method.

On to `CC(C)O` [propan-2-ol], for which the speed of sound reads like this: (278.15 K) 1208.5 ± 0.74 m/s; (288.15 K) 1173.1 ± 0.73 m/s; (298.15 K) 1138.2 ± 0.72 m/s; (308.15 K) 1103.2 ± 0.71 m/s; (318.15 K) 1068.1 ± 0.7 m/s; (328.15 K) 1032.6 ± 0.69 m/s. The mass density (278.15 K) stood at 797.34 ± 0.12 kg/m3; the mass density (288.15 K) worked out at 789.22 ± 0.13 kg/m3; the mass density (298.15 K) is given as 780.89 ± 0.13 kg/m3; the mass density (308.15 K) was determined as 772.28 ± 0.13 kg/m3; the mass density (318.15 K) stood at 763.32 ± 0.14 kg/m3; the mass density (328.15 K) was found to be 753.95 ± 0.14 kg/m3.

As for `CCn1cc[n+](C)c1.O=S(=O)([O-])C(F)(F)F` [1-ethyl-3-methylimidazolium trifluoromethanesulfonate], the speed of sound (278.15 K) came to 1482.2 ± 2.1 m/s; the speed of sound (288.15 K) came to 1458.3 ± 2.1 m/s; the speed of sound (298.15 K) was 1435.6 ± 2.1 m/s; the speed of sound (308.15 K) is recorded as 1413.2 ± 2.1 m/s; the speed of sound (318.15 K) was determined as 1391.3 ± 2.1 m/s; the speed of sound (328.15 K) is 1369.7 ± 2.1 m/s. Besides, the mass density (278.15 K) is 1400.51 ± 1.8 kg/m3; the mass density (288.15 K) was 1392.02 ± 1.8 kg/m3; the mass density (298.15 K) was 1383.58 ± 1.7 kg/m3; the mass density (308.15 K) is on record as 1375.19 ± 1.7 kg/m3; the mass density (318.15 K) turned out to be 1366.86 ± 1.7 kg/m3; the mass density (328.15 K) is given as 1358.59 ± 1.7 kg/m3.

With `C1CCOC1` [tetrahydrofuran], the speed of sound was 1375 ± 0.87 m/s (278.15 K); 1325.8 ± 0.85 m/s (288.15 K); 1277.4 ± 0.83 m/s (298.15 K); 1229.6 ± 0.81 m/s (308.15 K); 1182.4 ± 0.8 m/s (318.15 K). The mass density runs as follows: (278.15 K) 903.71 ± 0.09 kg/m3; (288.15 K) 892.92 ± 0.09 kg/m3; (298.15 K) 882.02 ± 0.1 kg/m3; (308.15 K) 871 ± 0.1 kg/m3; (318.15 K) 859.84 ± 0.11 kg/m3.

Usually speed of sound stands for how fast a sound wave travels through the sample. In general, mass density refers to mass per unit of volume.
